“Also recorded” adds a separate entry of the source. Read-outs that look alike come from different tables or passages of the source. Non-standard residues stand in square brackets, D forms with d. Primed or numbered codes have the meaning given here. No end group written: not given here. PEG5′ = linker of 5 PEG units between residues
Key:
[1] = system: mouse bone marrow derived macrophages (BMDMs); test: Phagocytosis of anti-TYRP1 opsonized B16F10 melanoma cells by mouse bone marrow derived macrophages; assay type: cell-based
Method: B16F10 cells: Bone marrow cells were isolated from femurs and tibias of healthy C57BL6/J mice (The Jackson Laboratory) and cultured in 10-cm petri dishes containing IMDM (Gibco) supplemented with 10% v/v FBS, 1% v/v penicillin/streptomycin, and 1:10,000 macrophage colony stimulating factor cytokine (M-CSF; Biolegend) for 7 days at 37° C., 5% CO2 and 95% humidity. All animal experiments were performed according to protocols approved by the University of Pennsylvania's IACUC (protocol #805977 and #804455). The resulting mouse bone marrow derived macrophages (BMDMs) were washed with PBS containing Ca2^+/Mg2^+ (Gibco) then detached with 0.25% trypsin-EDTA (Gibco) and re-plated in 6-well tissue culture plates using IMDM+M-CSF for 24 hours.
Mouse melanoma B16F10 cells were washed with PBS containing Ca2-/Mg2- and then trypsinized with 0.05% trypsin-EDTA. After washing twice with PBS, the cells were labeled with 1:10,000 CFDA—SE (Thermo Fisher) in PBS for 10 minutes. B16F10 cells were opsonized with 10 μg/mL anti-TYRP1 (TA99; Bio X Cell) in PBS for 2 hours at 4° C.with occasional inverting. For CD47 blocked B16F10 cells, 5 μg/mL of […] were added. During the incubation time, the BMDMs were washed with media then stained with 1:2,000 CellTracker Deep Red (Thermo Fisher) in PBS with Ca2^+/Mg2^+ for 10 min. After washing, 50 μM of the nano—Self peptides were incubated with the BMDMs for 1 hour at 37° C., 5% CO2 and 95% humidity. Finally, BMDMs were washed twice with PBS and then twice with serum-free IMDM.
Without removing the supernatant, the opsonized melanoma cells were added to the labeled BMDMs at a ratio of 2:1 for 2 hours at 37° C., 5% CO2 and 95% humidity. During the last 15 minutes of the assay, the cells were Hoechst stained. The wells were washed with serum free IMDM then fixed with 4% formaldehyde for 15 minutes at RT, and PBS washed. Fluorescence imaging was performed using an Olympus IX71 with a digital EMCCD camera (Cascade 512B) and a 40×/0.6 NA objective. Quantification was done with ImageJ (NIH). At least 200 cells were analyzed and two-tailed student's t-test was used to determine statistical significance.

human THP-1 macrophages = test: In vitro phagocytosis assay: opsonized human RBCs engulfed by peptide-treated THP-1 macrophages; assay type: cell-based; conditions: for EC50: opsonized human RBCs, human macrophages
Method: In vitro phagocytosis assay. Fresh human RBCs were washed twice with 50 mM EDTA (Thermo Fischer) in PBS (Gibco) then twice with 5% FBS in PBS. RBCs were opsonized with 20 μg/mL rabbit anti-human RBC antibody (Rockland) in 5% FBS for 1 hour at RT with shaking. For CD47 blocked RBCs, 5 μg/mL of mouse anti-human CD47 (B6H12; BD Biosciences) were added. Thereafter, RBCs were washed with PBS three times and stained with PKH26 dye (1:800 dilution in PBS; Sigma) for 1 hour at RT with shaking in the dark. RBCs were washed and resuspended in PBS.
THP-1 monocytes were PMA differentiated in RPMI for 48 hours. Macrophages were then washed with RPMI media three times. For SIRPα blocked THP-1 macrophages, 20 nM, 1 μM or 50 μM of the nano—Self peptides were incubated with the THP-1 macrophages for 1 hour at 37 ° C., 5% CO2 and 95% humidity. Those THP-Is were then washed with RPMI three times.
CO2 and 95% humidity. Macrophages were then washed with RPMI three times. Adherent and uninternalized RBCs were lysed with water for 30 seconds followed by immediate replacement with RPMI media. In order to distinguish remaining adherent RBCs from internalized RBCs, opsonized RBCs were stained with AlexaFluor 647 donkey anti-rabbit (binds to rabbit polyclonal opsonin on RBC; Invitrogen) IgG (1:1000) while unopsonized, CD47 blocked RBCs were stained with AlexaFluor 647 donkey anti-mouse (binds to mouse monoclonal anti-CD47 on RBCs; Invitrogen) IgG (1:1000) for 30 minutes. After washing, macrophages were fixed with 4% formaldehyde for 15 minutes at RT, washed with PBS, stained with 1 μg/mL Hoechst 33342, and then washed with PBS again. Fluorescence imaging was performed as described elsewhere herein and quantification was done using ImageJ. At least 200 cells were analyzed and experiments were repeated at least three times.

THP-1 macrophages = test: Phosphotyrosine (pTyr) staining of THP-1 macrophages; assay type: cell-based, human; conditions: 20 nM peptide
Method: Phosphotyrosine (pTyr) staining. THP-1 monocytes were PMA differentiated for 48 hours. Macrophages were washed with RPMI three times then incubated with 50 μM and 20 nM of either nS-F or nS-FF for 1 hour at 37° C., 5% CO2 and 95% humidity. The same conditions were replicated with the addition of 5 μg/mL anti-CD47. Excess peptide was washed with PBS then macrophages were fixed. […] After washing with PBS, the macrophages were incubated with 1:100 mouse anti-pTyr (Santa Cruz Biotechnology) for 1 hour at room temperature with shaking. Macrophages were washed with PBS then stained with AlexaFluor 488 donkey anti-mouse (1:1000; Invitrogen) and 1 μg/mL Hoechst 33342 for 1 hour with shaking then washed again. Fluorescence imaging and quantification was performed as described elsewhere herein.

soluble human SIRPα = biological target: T1, soluble human SIRPα (Homo sapiens, UniProt P78324); test: Binding of biotinylated peptides on streptavidin beads to soluble SIRPα
T1 construct: Soluble human SIRPα fused with glutathione s-transferase (SIRPα-GST); GST (glutathione S-transferase); made in house
T1 sequence (P78324 31-373 limits assumed): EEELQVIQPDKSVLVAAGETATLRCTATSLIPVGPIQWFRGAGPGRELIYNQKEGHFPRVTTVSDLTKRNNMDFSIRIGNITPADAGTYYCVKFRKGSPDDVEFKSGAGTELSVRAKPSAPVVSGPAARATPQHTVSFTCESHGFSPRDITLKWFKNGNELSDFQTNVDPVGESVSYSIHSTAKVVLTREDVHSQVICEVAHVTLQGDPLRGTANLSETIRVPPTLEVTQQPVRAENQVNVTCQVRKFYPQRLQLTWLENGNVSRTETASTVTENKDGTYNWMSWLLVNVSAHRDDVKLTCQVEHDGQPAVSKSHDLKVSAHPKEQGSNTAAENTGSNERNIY
Source text: SIRPα Expression and Purification. Soluble human SIRPα fused with glutathione s-transferase (SIRPα-GST) was expressed and purified as previously published (Tsai, et al., 2008, J. Cell Biol. 180:989-1003).
Peptide biotinylation: NHS-biotin (Thermo Fischer) was mixed with nS-wt and nS-V, respectively, following the manufacturer's protocol. The biotinylated peptides were dialyzed against PBS.
Streptavidin-beads binding: Streptavidin-coated polystyrene beads of 2.1 μm radius (Spherotech) were washed and blocked 3x in PBS plus 0.4% BSA. nS-wt-biotin or nS-V-biotin were incubated with the beads for 1 hour at room temperature with shaking. Beads were washed with PBS, then incubated with recombinant SIRPα for 1 hour in ice. Streptavidin beads were labeled with rabbit anti-streptavidin-FITC (Invitrogen) and SIRPα was stained with mouse anti-SIRPα-allophycocyanin (anti-SIRPα-APC; Invitrogen).

| EC50 (human THP-1 macrophages; read-out: effective potency (keff) for phagocytosis) [nM] | Substance | activity of bivalent peptide in primary mouse macrophages [1] | effect on phagocytosis of opsonized RBCs (words) (human THP-1 macrophages; 20 nM peptide) | macrophages with at least one opsonized RBC internalized (human THP-1 macrophages; 20 nM peptide, anti-RBC opsonized RBCs, 1 h assay) [%] | increase in phagocytosis at higher concentration (human THP-1 macrophages; 1 μM, 50 µM versus 20 nM) [%] | EC50 (human THP-1 macrophages; read-out: efficacy constant (Keff) for phagocytosis) [nM] | effect on pTyr signal (THP-1 macrophages) | effect on phagocytosis of opsonized WT and SIRPα KO B16 cells ([1]; 50 μM peptide) | macrophages containing opsonized RBCs (human THP-1 macrophages; maximum peptide concentration 50 μM, anti-RBC opsonized RBCs) [%] | effect on phagocytosis of opsonized RBCs (words) (human THP-1 macrophages; saturating / 50 μM peptide) | SIRPα binding to peptide-coated beads (soluble human SIRPα) |
| --- | --- | --- | --- | --- | --- | --- | --- | --- | --- | --- | --- |
|  | (VTELFREG-PEG5)2-K (VTELFREG[PEG5′]K[PEG5′]GERFLETV; not fully specified; also: bivalent lysine core) [nS-FF, bivalent nS-F linked through PEG5 linkers to a C-terminal Lys] | low activity; also recorded: reduced activity with mouse macrophages | successful in activating THP-1 to engulf opRBCs; also recorded: more potent in enhancing phagocytosis | ~40 | ~5 | ~8 | suppressed pTyr at nanomolar concentrations; also recorded: suppressed passivating pTyr intensity; also recorded: suppressed pTyr signal; also recorded: efficiently suppresses phosphorylation |  |  |  |  |
| ~1000 | VTELTREG [nS-wt, 8-amino acid wild type nano-Self peptide from the CD47 loop, C-terminal amide] |  |  |  |  |  |  | lower levels | ~30 | least effective among monovalents; also recorded: Lower levels of phagocytosis; also recorded: gives the same result as anti-CD47 | fluorescence is only observed in the presence of biotinylated peptide |
